Assays:
[1] = system: luciferase and hispidin hydroxylase of Neonothopanus nambi; assay: Hispidin hydroxylase with hispidin analogues in cell lysate; format: biochemical; conditions: 660 μg/ml, 1 mM NADPH, pH 8.0
Experimental: HEK293NT cells, expressing luciferase and hispidin hydroxylase of Neonothopanus nambi, obtained according to Example 2, were rinsed from Petri dishes 24 hours after transfection with Versene solution laced with 0.025% of trypsin, the medium was replaced by phosphate-buffered saline with pH 8.0 by centrifugation, the cells were resuspended, lysed by ultrasound in Bioruptor (Diagenode, Belgium) with in 7 minutes at 0° C. in conditions recommended by the manufacturer, and 1 mM of NADPH (Sigma-Aldrich, USA), and also hispidin or one of its analogues were added to the medium: (E)-4-hydroxy-6-(4-hydroxystyryl)-2H-pyran-2-one, (E)-6-(2-(1H-indol-3-yl)vinyl)-4-hydroxy-2H-pyran-2-one, (E)-6-(2-(1,2,3,5,6,7-hexahydropyrido[3,2,1-ij]quinolin-9-yl)vinyl)-4-hydroxy-2H-pyran-2-one, E)-6-(4-(diethylamino)styryl)-4-hydroxy-2H-pyran-2-one, or (E)-4-hydroxy-6-(2-(6-hydroxynaphthalene-2-yl)vinyl)-2H-pyran-2-one at concentration of 660 μg/ml. Bioluminescence spectra were detected by spectrofluorometer Varian Cary Eclipse. […] Depending on luciferin used the expected displacement of luminescence peak was observed.

[2] = system: recombinant hispidin hydroxylase from Neonothopanus nambi; assay: HPLC analysis of hydroxylation by recombinant hispidin hydroxylase; format: biochemical; conditions: 0.2 μM substrate, 1 mM NADPH, 30 minutes
Experimental: The isolated recombinant hispidin hydroxylase from Neonothopanus nambi, obtained according to Example 4, was added to reaction mixtures comprising 1 mM of NADPH and 0.2 μM of hispidin, (E)-4-hydroxy-6-styryl-2H-pyran-2-one or (E)-4-hydroxy-6-(4-hydroxystyryl)-2H-pyran-2-one in 100 μl of the buffer (0.2 M of Na-phosphate buffer, 0.5 M of Na2SO4, 0.1% dodecylmaltoside (DDM) pH 8.0). In 30 minutes, the reaction mixture was analyzed by HPLC using synthetic luciferins as standards.

[3] = system: hispidin-synthase and caffeylpyruvate hydrolase with Neonothopanus nambi luciferase and hispidin hydroxylase; assay: Luminescence with recombinant hispidin-synthase, caffeylpyruvate hydrolase, luciferase and hispidin hydroxylase; format: biochemical; conditions: 0.2 μM
Experimental: The obtained enzymes were used for obtaining luminescence (bioluminescence) in reaction with Neonothopanus nambi luciferase and hispidin hydroxylase, obtained according to Example 4. 5 μl of each isolated recombinant protein solution were put into a glass tube, comprising 100 μl of the buffer (0.2 M of Na-phosphate buffer, 0.5 M of Na2SO4, 0.1% dodecylmaltoside (DDM) pH 8.0), 1 mM of NADPH (Sigma-Aldrich, USA), 10 mM of ATP (ThermoFisher Scientific, USA), 1 mM of CoA (Sigma-Aldrich, USA), 1 mM of malonyl-CoA (Sigma-Aldrich, USA) and 0.2 μM of one of 3-arylacrylic acids: paracoumaric acid (Sigma-Aldrich, USA), cinnamic acid (Sigma-Aldrich, USA) or ferulic acid (Abcam, USA). In the other experiment instead of substituted 3-arylacrylic acid the analogues of fungal oxyluciferin—(2E,5E)-2-hydroxy-6-(4-hydroxyphenyl)-4-oxohexa-2,5-diene, (2E,5E)-2-hydroxy-4-oxo-6-phenylhexa-2,5-diene, or (2E,5E)-2-hydroxy-6-(4-hydroxy-3-methoxyphenyl)-4-oxohexa-2,5-diene acids—also at concentration of 0.2 μM were put into a glass tube. The glass tubes were placed into a luminometer.

[4] = system: Pichia pastoris GS115 yeast cells expressing luciferase, hispidin hydroxylase and coumarate-CoA ligase 1; assay: Screening of PKS for hispidin-synthase activity in yeast colonies sprayed with caffeic acid; format: cell-based; conditions: colonies sprayed with caffeic acid solution
Excerpt: The selected nucleotide sequences for expression in Pichia pastoris yeast cells and Nicotiana benthamiana plant cells were optimized. The resulting nucleic acids were obtained synthetically and cloned into pGAPZ vector and used for verifying ability of the expressed proteins to synthesize hispidin.
For this purpose, in genome of Pichia pastoris GS115 yeast line, constitutively expressing Neonothopanus nambi luciferase and hispidin hydroxylase, obtained according to Example 1, there was additionally introduced pGAPZ plasmid, comprising gene of
Arabidopsis thaliana coumarate-CoA ligase 1 (which nucleotide and amino acid sequence are shown in SEQ ID NOs: 140, 141), also obtained by oligonucleotide synthesis. The plasmid was linearized at restriction site AvrII and used for transformation into Pichia pastoris GS115 cells.
The obtained yeast cells, constitutively expressing Neonothopanus nambi luciferase and hispidin hydroxylase and Arabidopsis thaliana coumarate-CoA ligase 1, were […] by plasmids comprising coding PKS sequences, and dispersed in Petri dishes with RDB medium, comprising 1 M of sorbitol, 2% (weight/volume) of glucose, 1.34% (weight/volume) of yeast nitrogen base (YNB), 0.005% (weight/volume) of amino acids mixture, 0.00004% (weight/volume) of biotin and 2% (weight/volume) of agar. To identify enzymes having hispidin-synthase activity, the obtained colonies were sprayed with caffeic acid solution, detecting hispidin-synthase presence in cells by occurrence of luminescence. Luminescence emitted by colonies was detected by means of IVIS Spectrum CT (Perkin Elmer, USA). Yeast line constitutively expressing luciferase, hispidin hydroxylase and coumarate-CoA ligase 1, and also wild yeast cells were used as negative control. […] Amino acid sequences coded by then are shown in SEQ ID NOs: 119, 121, 123, 125, 127, 129, 131, 133, 135, 137, 139 respectively.

[5] = system: recombinant hispidin hydroxylases; assay: Functionality test of isolated recombinant hispidin hydroxylases in luminometer; format: biochemical; conditions: 0.2 μM hispidin, 1 mM NADPH, Neonothopanus nambi luciferase
Experimental: Polyhistidine sequence (His tag) was operatively attached to 5′-end of nucleic acids coding hispidin-3-hydroxylases and luciferase from Neonothopanus nambi, obtained according to the examples 1 and 2. The obtained structures were cloned into pET-23 vector by means of restriction endonucleases BamHI and HindIII. The vector was used for transformation of Escherichia coli cells of BL21-DE3 strain. The cells were dispersed in Petri dishes with LB medium, comprising 1.5% of agar, 100 μg/ml of ampicillin, and incubated overnight at 37° C. Then, Escherichia coli colonies were transferred into 4 ml of liquid LB medium laced with ampicillin, incubated overnight at 37° C. with fluctuation. 1 ml of overnight culture was transferred into 100 ml of Overnight Express Autoinduction medium (Novagen), where ampicillin was preliminarily added to. The culture was grown at 37° C. within 2.5 hours until reaching optical density of 0.6 OE at 600 nm, and then it was grown at room temperature within 16 hours. […]
Aliquots of isolated recombinant hispidin hydroxylases were used for testing functionality and stability. […] In all cases the luminescence intensity when using hispidin was the highest when using Neonothopanus nambi hispidin hydroxylase and the lowest when using Armillaria mellea hispidin hydroxylase.

O=c1cc(O)cc(/C=C/c2ccc(O)cc2)o1 [(E)-4-hydroxy-6-(4-hydroxystyryl)-2H-pyran-2-one]
Luminescence in lysates [1]: Luminescence in lysates was observed
HPLC detection of hydroxylated product [2]: occurrence of peaks corresponding to 3d position hydroxylated derivatives

CCN(CC)c1ccc(/C=C/c2cc(O)cc(=O)o2)cc1 [(E)-6-(4-(diethylamino)styryl)-4-hydroxy-2H-pyran-2-one]
Luminescence in lysates [1]: Luminescence in lysates was observed

O=c1cc(O)cc(/C=C/c2cc3c4c(c2)CCCN4CCC3)o1 [(E)-6-(2-(1,2,3,5,6,7-hexahydropyrido[3,2,1-ij]quinolin-9-yl)vinyl)-4-hydroxy-2H-pyran-2-one]
Luminescence in lysates [1]: Luminescence in lysates was observed

O=C(O)/C=C/c1ccc(O)cc1 [paracoumaric acid]
luminescence in reaction [3]: resulted in luminescence

O=c1cc(O)cc(/C=C/c2ccccc2)o1 [(E)-4-hydroxy-6-styryl-2H-pyran-2-one]
HPLC detection of hydroxylated product [2]: occurrence of peaks corresponding to 3d position hydroxylated derivatives

COc1cc(/C=C/C(=O)/C=C(/O)C(=O)O)ccc1O [(2E,5E)-2-hydroxy-6-(4-hydroxy-3-methoxyphenyl)-4-oxohexa-2,5-diene acid]
luminescence in reaction [3]: resulted in luminescence

O=C(/C=C/c1ccccc1)/C=C(/O)C(=O)O [(2E,5E)-2-hydroxy-4-oxo-6-phenylhexa-2,5-diene acid]
luminescence in reaction [3]: resulted in luminescence

O=C(/C=C/c1ccc(O)cc1)/C=C(/O)C(=O)O [(2E,5E)-2-hydroxy-6-(4-hydroxyphenyl)-4-oxohexa-2,5-diene acid]
luminescence in reaction [3]: resulted in luminescence

O=c1cc(O)cc(/C=C/c2ccc3cc(O)ccc3c2)o1 [(E)-4-hydroxy-6-(2-(6-hydroxynaphthalene-2-yl)vinyl)-2H-pyran-2-one]
Luminescence in lysates [1]: Luminescence in lysates was observed

COc1cc(/C=C/C(=O)O)ccc1O [ferulic acid]
luminescence in reaction [3]: resulted in luminescence

O=C(O)/C=C/c1ccccc1 [cinnamic acid]
luminescence in reaction [3]: resulted in luminescence

O=c1cc(O)cc(/C=C/c2c[nH]c3ccccc23)o1 [(E)-6-(2-(1H-indol-3-yl)vinyl)-4-hydroxy-2H-pyran-2-one]
Luminescence in lysates [1]: Luminescence in lysates was observed

B1: SEQ ID NO: 135: plant type III polyketide synthase (PKS) (protein, listed as Wachendorfia thyrsiflora)
chain: MASTEGIQAYRNNMAEGPATIMAIGTANPPNVVDASTFPDYYWRVTNSEHLSPEYRVKLKRICERSSIRKRHLVLTEQLLKENPTLTTYVDASYDERQSIVLDAVPKLACEAAAKAIKEWGRPKTDITHMVVCTGAGVDVPGVDYKMMNLLGLPPTVNRVMLYNVGCHASGTVLRIAKDLAENNKGARVLVVSSEVSVMFFRGPAEGDVEILLGQALFGDGSAAIIVGADPIEGVEKPIFQIFSASQMTLPEGEHLVAGHLRELGLTFHLKPQLPNTVSSNIHKPLKKAFEPLNITDWNSIFWIVHPGGRAILDQVQEKIGLEENKLDVSRYVLAENGNMMSASVFFIMDEMRKRSAAQGCSTTGEGHEWGVLFGFGPGLSIETVVLHSVPLSI
hispidin-synthase activity [4]: had hispidin-synthase activity

B2: Neonothopanus nambi hispidin hydroxylase: isolated recombinant hispidin hydroxylase from Neonothopanus nambi (protein, listed as Neonothopanus nambi)
chain: MASFENSLSVLIVGAGLGGLAAAIALRRQGHVVKIYDSSSFKAELGAGLAVPPNTLRSLQQLGCNTENLNGVDNLCFTAMGYDGSVGMMNNMTDYREAYGTSWIMVHRVDLHNELMRVALDPGGLGPPATLHLNHRVTFCDVDACTVTFTNGTTQSADLIVGADGIRSTIRRFVLEEDVTVPASGIVGFRWLVQADALDPYPELDWIVKKPPLGARLISTPQNPQSGVGLADRRTIIIYACRGGTMVNVLAVHDDERDQNTADWSVPASKDDLFRVFHDYHPRFRRLLELAQDINLWQMRVVPVLKKWVNKRVCLLGDAAHASLPTLGQGFGMGLEDAVALGTLLPKGTTASQIETRLAVYEQLRKDRAEFVAAESYEEQYVPEMRGLYLRSKELRDRVMGYDIKVESEKVLETLLRSSNSA
luminescence intensity when using hispidin (comparison of hispidin hydroxylases) [5]: highest

— patent publication US20240117385A1, “ENZYMES OF LUCIFERIN BIOSYNTHESIS AND USE THEREOF” (LIGHT BIO, INC., priority 2018, published 2024)
